Measurements: ChEMBL document CHEMBL1201862, “PubChem BioAssay data set” (2004)
Activity calls are given as the source filed them.

How the values were obtained:
[1] = target: Paired box protein Pax-8 (Homo sapiens, UniProt Q06710); assay: PAX8 transcriptional activity inhibition in RMG-I – RMG-I cells, luciferase, cherry-pick, dose response (AID 687027); format: functional, cell-based;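 note: luciferase reporter driven by Pax8 target thyroperoxidase promoter measured by SteadyGlo luminescence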
[2] = toxicity toward HepG2 liver cells – cell-based, plate reader, cherry-pick, antagonist series, cytotoxicity control, dose response (AID 743416); format: functional
[3] = blockers of bursicon-stimulated LGR2 cAMP reporter – cell-based, HEK293, CRE-luciferase reporter, cherry pick, set 2, dose response (AID 743343); format: functional;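 note: transfected cells were stimulated with diluted bursicon conditioned medium after compound addition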
[4] = A549 cell cytotoxicity, dose response, cytotoxicity control, plate reader, cherry-pick, antagonist series (AID 743412); format: functional, cell-based
[5] = viability loss in HEK293 cells – cell-based, plate reader, cherry-picked samples, cytotoxicity control, dose response (AID 743446); format: functional
[6] = CMV-driven luciferase expression suppression in HEK293 – cell-based, luminescence, dry powder, counter-screen for Pax8 inhibitor project, dose response (AID 743020); format: functional
[7] = blockade of melanocortin 4 receptor signaling – cell-based, plate reader, cherry pick, counter-screen for LGR2 antagonist project, dose response (AID 743444); format: functional;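 note: transfected HEK 293 cells stimulated with alpha-MSH peptide; potency of inhibitors of the alpha-MSH evoked signal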

Measured: AC50

Sequence of Paired box protein Pax-8 (Q06710 whole entry): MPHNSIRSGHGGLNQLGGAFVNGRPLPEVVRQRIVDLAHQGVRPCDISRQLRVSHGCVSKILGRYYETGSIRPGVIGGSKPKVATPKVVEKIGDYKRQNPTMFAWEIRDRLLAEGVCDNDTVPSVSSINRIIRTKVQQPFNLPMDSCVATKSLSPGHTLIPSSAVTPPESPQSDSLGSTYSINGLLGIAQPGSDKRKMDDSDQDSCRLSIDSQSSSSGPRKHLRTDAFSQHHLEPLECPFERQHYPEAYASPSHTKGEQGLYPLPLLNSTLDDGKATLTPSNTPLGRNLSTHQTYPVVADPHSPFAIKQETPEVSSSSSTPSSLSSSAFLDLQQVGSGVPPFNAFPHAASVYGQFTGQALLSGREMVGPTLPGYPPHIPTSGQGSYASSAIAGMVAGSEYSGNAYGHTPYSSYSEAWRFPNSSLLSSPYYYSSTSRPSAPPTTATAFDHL

O=C(C[C@H]1C[C@@H]2c3cc(NS(=O)(=O)c4ccc(F)cc4)ccc3O[C@@H]2[C@@H](CO)O1)NCc1ccc(Oc2ccccc2)cc1
active: [1] 8.32 µM | [2] 20.9 µM | [3] 26 µM | [4] 19.3 µM | [5] 22.3 µM | [6] 40.6 µM | [7] 25.6 µM
